The source made the active and inactive calls. No cut-off for these calls is given here.
Key:
[1] = target: T1, Serine/threonine-protein kinase mTOR (Homo sapiens, UniProt P42345); assay: Inhibition of mTOR (unknown origin)
[2] = target: T1, Serine/threonine-protein kinase mTOR; assay: Inhibition of mTOR in human MDA-MB-231 cells assessed as reduction in phosphorylation of mTOR at Ser2448 residue at 0.5 to 2 uM after 24 hrs by Western blot analysis; format: cell-based; settings: dose 0.5-2 µM
[3] = target: T1, Serine/threonine-protein kinase mTOR; assay: Inhibition of mTOR in human MDA-MB-468 cells assessed as reduction in phosphorylation of mTOR at Ser2448 residue at 0.5 to 2 uM after 24 hrs by Western blot analysis; format: cell-based; settings: dose 0.5-2 µM
[4] = target: T1, Serine/threonine-protein kinase mTOR; assay: Inhibition of mTOR in human MDA-MB-231 cells assessed as reduction in total 4EBP1 protein level at 0.5 to 2 uM after 24 hrs by Western blot analysis; format: cell-based; settings: dose 0.5-2 µM
[5] = target: T1, Serine/threonine-protein kinase mTOR; assay: Inhibition of mTOR in human MDA-MB-231 cells assessed as reduction in AKT protein level at 0.5 to 2 uM after 24 hrs by Western blot analysis; format: cell-based; settings: dose 0.5-2 µM
[6] = target: T1, Serine/threonine-protein kinase mTOR; assay: Inhibition of mTOR in human MDA-MB-231 cells assessed as reduction in p-4EBP1(Thr37/46) protein level at 0.5 to 2 uM after 24 hrs by Western blot analysis; format: cell-based; settings: dose 0.5-2 µM
[7] = target: T1, Serine/threonine-protein kinase mTOR; assay: Inhibition of mTOR in human MDA-MB-231 cells assessed as reduction in p-AKT(Ser473) protein level at 0.5 to 2 uM after 24 hrs by Western blot analysis; format: cell-based; settings: dose 0.5-2 µM
[8] = target: T1, Serine/threonine-protein kinase mTOR; assay: Inhibition of mTOR in human MDA-MB-231 cells assessed as reduction in p70S6K(Thr389) protein level at 0.5 to 2 uM after 24 hrs by Western blot analysis; format: cell-based; settings: dose 0.5-2 µM
[9] = target: T1, Serine/threonine-protein kinase mTOR; assay: Inhibition of mTOR in human MDA-MB-468 cells assessed as reduction in p-4EBP1(Thr37/46) protein level at 0.5 to 2 uM after 24 hrs by Western blot analysis; format: cell-based; settings: dose 0.5-2 µM
[10] = target: T1, Serine/threonine-protein kinase mTOR; assay: Inhibition of mTOR in human MDA-MB-468 cells assessed as reduction in p-AKT(Ser473) protein level at 0.5 to 2 uM after 24 hrs by Western blot analysis; format: cell-based; settings: dose 0.5-2 µM
MDA-MB-231 [11] = assay: Antiproliferative activity against human MDA-MB-231 cells measured after 24 hrs by Hoechst 33258 dye based fluorescence microscopic analysis; format: functional, cell-based; settings: dose 2.5-10 µM
MDA-MB-468 [12] = assay: Antiproliferative activity against human MDA-MB-468 cells measured after 24 hrs by Hoechst 33258 dye based fluorescence microscopic analysis; format: functional, cell-based; settings: dose 2.5-10 µM
MDA-MB-468 [13] = assay: Inhibition of colony formation in human MDA-MB-468 cells measured after 14 days by crystal violet staining based assay; format: functional, cell-based; settings: dose 5-10 µM, time 14.0 day
MDA-MB-231 [14] = assay: Induction of apoptosis in human MDA-MB-231 cells assessed as viable cells at 2.5 uM after 24 hrs by AnnexinV-FITC/PI staining based flow cytometry analysis (reference value: 96.45%); format: functional; settings: read-out: Activity
MDA-MB-231 [15] = assay: Induction of apoptosis in human MDA-MB-231 cells assessed as early apoptotic cells at 2.5 uM after 24 hrs by AnnexinV-FITC/PI staining based flow cytometry analysis (reference value: 2.63%); format: functional
MDA-MB-231 [16] = assay: Induction of apoptosis in human MDA-MB-231 cells assessed as late apoptotic cells at 2.5 uM after 24 hrs by AnnexinV-FITC/PI staining based flow cytometry analysis (reference value: 0.84%); format: functional
MDA-MB-231 [17] = assay: Induction of apoptosis in human MDA-MB-231 cells assessed as late apoptotic cells at 5 uM after 24 hrs by AnnexinV-FITC/PI staining based flow cytometry analysis (reference value: 0.84%); format: functional
MDA-MB-231 [18] = assay: Induction of apoptosis in human MDA-MB-231 cells assessed as early apoptotic cells at 10 uM after 24 hrs by AnnexinV-FITC/PI staining based flow cytometry analysis (reference value: 2.43 to 2.63%); format: functional
MDA-MB-468 [19] = assay: Induction of apoptosis in human MDA-MB-468 cells assessed as viable cells at 2.5 uM after 24 hrs by AnnexinV-FITC/PI staining based flow cytometry analysis (reference value: 95.1%); format: functional; settings: read-out: Activity
MDA-MB-468 [20] = assay: Induction of apoptosis in human MDA-MB-468 cells assessed as early apoptic cells at 2.5 uM after 24 hrs by AnnexinV-FITC/PI staining based flow cytometry analysis (reference value: 0.51%); format: functional
MDA-MB-468 [21] = assay: Induction of apoptosis in human MDA-MB-468 cells assessed as viable cells at 5 uM after 24 hrs by AnnexinV-FITC/PI staining based flow cytometry analysis (reference value: 95.1%); format: functional; settings: read-out: Activity
MDA-MB-468 [22] = assay: Induction of apoptosis in human MDA-MB-468 cells assessed as early apoptic cells at 5 uM after 24 hrs by AnnexinV-FITC/PI staining based flow cytometry analysis (reference value: 0.51%); format: functional
MDA-MB-468 [23] = assay: Induction of apoptosis in human MDA-MB-468 cells assessed as late apoptic cells at 5 uM after 24 hrs by AnnexinV-FITC/PI staining based flow cytometry analysis (reference value: 2.84%); format: functional
MDA-MB-468 [24] = assay: Induction of apoptosis in human MDA-MB-468 cells assessed as early apoptic cells at 10 uM after 24 hrs by AnnexinV-FITC/PI staining based flow cytometry analysis (reference value: 0.51 to 2.55%); format: functional
MDA-MB-468 [25] = assay: Induction of apoptosis in human MDA-MB-468 cells assessed as late apoptic cells at 10 uM after 24 hrs by AnnexinV-FITC/PI staining based flow cytometry analysis (reference value: 0.87 to 2.84%); format: functional
MDA-MB-468 [26] = assay: Induction of apoptosis in human MDA-MB-468 cells assessed as increase in cleaved caspase 3 level at 2.5 to 10 uM incubated for 24 hrs by western blot analysis; format: functional, cell-based; settings: dose 2.5-10 µM
MDA-MB-231 [27] = assay: Induction of apoptosis in human MDA-MB-231 cells assessed as increase in Bax level at 2.5 to 10 uM incubated for 24 hrs by western blot analysis; format: functional, cell-based; settings: dose 2.5-10 µM
MDA-MB-468 [28] = assay: Induction of autophagy in human MDA-MB-468 cells assessed as reduction in p62 protein level at 2.5 to 10 uM incubated for 24 hrs by Western blot analysis; format: functional, cell-based; settings: dose 2.5-10 µM
MDA-MB-468 [29] = assay: Induction of autophagy in human MDA-MB-468 cells assessed as increase in Beclin-1 protein level at 2.5 to 10 uM incubated for 24 hrs by Western blot analysis; format: functional, cell-based; settings: dose 2.5-10 µM
MDA-MB-231 [30] = assay: (§1) Induction of apoptosis in human MDA-MB-231 cells assessed as late apoptotic cells at 10 uM pretreated with autophagy inhibitor, 3-methyladenine for 1 hr followed by incubation with compound and measured after 24 hrs by Annexin V-FITC/propidium iodide staining based flow cytometry (reference value: 3.11%); format: functional; set-up: scale not given: the % may be the effect or the level left
MDA-MB-468 [31] = assay: as §1, with “MDA-MB-468” for “MDA-MB-231”, “early” for “late”, “pretreated for 1 hr” for “pretreated”, “3-methyladenine” for “3-methyladenine for 1 hr”, “4.08%)” for “3.11%)”; format: functional; set-up: scale not given: the % may be the effect or the level left
MDA-MB-468 [32] = assay: as §1, with “MDA-MB-468” for “MDA-MB-231”, “pretreated for 1 hr” for “pretreated”, “3-methyladenine” for “3-methyladenine for 1 hr”, “1.94%)” for “3.11%)”; format: functional; set-up: scale not given: the % may be the effect or the level left
A549 = assay: cells; settings: Homo sapiens, A549, 24 h
Description: Antiproliferative activity against human A549 cells assessed as reduction in cell viability incubated for 24 hrs by MTT assay

MDA-MB-468 [33] = assay: cells; settings: Homo sapiens, MDA-MB-468, 24 h
Description: Antiproliferative activity against human MDA-MB-468 cells assessed as reduction in cell viability incubated for 24 hrs by MTT assay

## C/C(=N\NC(=O)c1cccc(Br)c1)c1ccc(C(=O)Nc2nc3ccccc3[nH]2)cc1
[1]
  IC50: 0.304 µM
[2]
  inhibition: Active
[3]
  inhibition: Active
[4]
  inhibition: Active
[5]
  inhibition: Active
[6]
  inhibition: Active
[7]
  inhibition: Active
[8]
  inhibition: Active
[9]
  inhibition: Active
[10]
  inhibition: Active
MDA-MB-231 [11]
  Activity: Dose-Dependent Effect
MDA-MB-468 [12]
  Activity: Dose-Dependent Effect
MDA-MB-468 [13]
  inhibition: Dose-Dependent Effect
MDA-MB-231 [14]
  viability at 2.5 µM: 90.1%
MDA-MB-231 [15]
  Activity: 6.84%
MDA-MB-231 [16]
  Activity: 2.96%
MDA-MB-231 [17]
  Activity: 2.3%
MDA-MB-231 [18]
  Activity: 12.9%
MDA-MB-468 [19]
  viability at 2.5 µM: 89.8%
MDA-MB-468 [20]
  Activity: 3.35%
MDA-MB-468 [21]
  viability at 5 µM: 86.2%
MDA-MB-468 [22]
  Activity: 5.57%
MDA-MB-468 [23]
  Activity: 5.16%
MDA-MB-468 [24]
  Activity: 12%
MDA-MB-468 [25]
  Activity: 12.3%
MDA-MB-468 [26]
  Activity: Active
MDA-MB-231 [27]
  Activity: Active
MDA-MB-468 [28]
  Activity: Active
MDA-MB-468 [29]
  Activity: Active
MDA-MB-231 [30]
  Activity: 6.8%
MDA-MB-468 [31]
  Activity: 7.07%
MDA-MB-468 [32]
  Activity: 8.98%
A549
  IC50: 6.48 µM
MDA-MB-468 [33]
  IC50: 4.3 µM

Reference: ChEMBL document CHEMBL4819087, “Identification and optimization of 3-bromo-N'-(4-hydroxybenzylidene)-4-methylbenzohydrazide derivatives as mTOR inhibitors that induce autophagic cell death and apoptosis in triple-negative breast cancer” (Eur J Med Chem, 2021)
